Results from patent publication US6774142B2, “Inhibition by 3-deoxyflavonoids of T-lymphocyte activation and therapies related thereto” (priority 2001, dated 2004).

How the values were obtained:
[1] = cited from earlier work
[2] = system: chronic Type I (BBWor) diabetic rats; experiment: Blood glucose in chronic Type I (BBWor) diabetic rats; format: in vivo, rat; details: for blood glucose after treatment: 6 hours; for blood glucose before treatment: time 0; for decrease in blood glucose levels: within 6 hours of a single treatment (luteolin 3 mg intragastrically; PZI insulin subcutaneous)
Protocol: The effect of Luteolin treatment in chronic Type I (BBWor) diabetic rats was examined. In this study, lean male diabetic rats were randomly assigned to 3 treatment groups (3-4 rats/group). Each group received either: (1) 3 mg dose of luteolin intragastrically; (2) a subcutaneous injection of PZI insulin (0.9-1.2 mU/day); or (3) no treatment. Blood glucose was evaluated from time 0 through 6 hours. The data was expressed as average blood glucose relative to time post treatment.

[3] = system: obese Type II (BBZDR) diabetic rats; experiment: Blood glucose in Type II BBZDR rats, two weeks of treatment; format: in vivo, rat
Protocol: In this example, the dose of luteolin was standardized to 50 mg three times per day in the same group of Type II BBZDR rats from Example 5 over an extended period of treatment of two weeks. […] The data was expressed for each rat as a percentage change in blood glucose level relative to each individual pre-treatment level.

[4] = system: chronic Type 2 diabetic rats; experiment: Blood glucose in chronic Type 2 diabetic rats, 24 hr dose study; format: in vivo, rat
Protocol: Luteolin was also evaluated for its effect to reduce hyperglycemia in chronic Type 2 diabetic rats. In this study, the dose and frequency of Luteolin treatment was increased to compensate for the enhanced metabolism of the obese rat. First, a 24 hour baseline study was performed on 9 chronic Type 2 rats. […] These same rats were randomly assigned to 3 groups and given 50, 150 and 250 mg doses of Luteolin at three times during the 24 hr period (11 AM, 2 PM and 8 PM). Blood glucose analysis was evaluated every 2 hours.

[5] = target: Kv1.3 channel (Homo sapiens, UniProt P22001); experiment: Inhibition of the Kv1.3 channel, patch clamp method; format: cell-based
Kv1.3 channel, sequence (P22001 whole entry): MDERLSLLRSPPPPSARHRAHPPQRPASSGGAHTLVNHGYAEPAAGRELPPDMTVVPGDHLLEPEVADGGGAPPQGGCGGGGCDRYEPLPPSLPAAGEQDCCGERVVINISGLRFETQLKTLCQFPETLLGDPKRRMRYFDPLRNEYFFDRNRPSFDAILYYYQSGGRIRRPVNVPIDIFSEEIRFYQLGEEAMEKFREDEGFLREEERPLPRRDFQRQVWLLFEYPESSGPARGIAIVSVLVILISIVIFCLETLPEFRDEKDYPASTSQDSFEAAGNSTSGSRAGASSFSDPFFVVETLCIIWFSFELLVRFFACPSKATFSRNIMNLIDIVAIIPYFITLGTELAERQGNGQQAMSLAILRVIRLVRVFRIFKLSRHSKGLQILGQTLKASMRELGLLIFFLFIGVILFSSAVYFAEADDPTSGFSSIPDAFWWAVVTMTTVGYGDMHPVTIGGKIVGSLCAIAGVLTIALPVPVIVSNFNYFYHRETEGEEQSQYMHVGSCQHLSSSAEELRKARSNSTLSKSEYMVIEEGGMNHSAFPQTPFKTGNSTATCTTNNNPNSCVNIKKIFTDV
Text: Furthermore, the invention deals with ion channels that constitute a set of molecular targets through which these 3-deoxyflavonoids exert their biological effects. The flavonoid compounds of this invention can lower and stabilize blood glucose levels in Type-I and Type-II diabetics, and can also ameliorate symptoms of lupus erythematosus, an autoimmune disease affecting several organs. Type-I diabetes is an autoimmune disease in which autoreactive lymphocytes destroy pancreatic P-cells, while the etiology of Type-II diabetes is due to inadequate insulin production and decreased ability of insulin to affect its target end-organs. Since ion channels play a critical role in lymphocytes and in pancreatic β-cell signaling, it is most likely that at least some of the therapeutic effects of flavonoids may arise through blockade of ion channels. […] The non-toxic nature of these flavonoids in humans makes them attractive as nutraceuticals that could complement or replace existing medications and therapies. Inhibition of the Kv1.3 channel was performed utilizing the patch clamp method desctribed by […]. Biol. Chem. 276: 12249.

[6] = system: cytotoxic T lymphocyte line CTL264; experiment: CTL cytotoxicity against 264 peptide-pulsed T2 target cells (calcein release); format: cell-based; details: for inhibition of calcein release: FIG. 3
Protocol: A cytotoxic T lymphocyte line (CTL—designated CTL264) specific for a peptide antigen (aa 264-272, referred to as the 264 peptide) derived from the tumor suppressor protein p53 was used as a […] to test if luteolin had any effect on CTL cytotoxicity against 264 peptide-pulsed T2 target cells. T2 target cells were pulsed with 264 peptide for 2 hours and labeled with Calcein-AM for 30 minutes and washed three times. Mixtures of T2 cells and CTL264 were incubated for 4 hours. 100 μL supernatants were transferred to a 96-well flat-bottom microtiter plates to read fluorescence (538 nm) to measure calcein release due to cell lysis.
The spontaneous calcein release in cytotoxic T Lymphocytes was determined by incubation of targets in RPMI-10. The maximal calcein release was determined by incubation of targets in Triton X-100. Data are reported as the mean of triplicate determinations.

[7] = fried onions, equivalent to 64 mg quercetin aglycone
[8] = 50 mg three times per day for two weeks

O=c1c(O)c(-c2ccc(O)c(O)c2)oc2cc(O)cc(O)c12 [quercetin]
distribution phase half-life [1, 7]: 3.8 h | elimination phase half-life [1, 7]: 16.8 h | time of peak plasma levels [1, 7]: 2.9 h | human absorption ([1]; oral): 24%

insulin [reference compound]
blood glucose after treatment [2]: 112 mg/dL | blood glucose before treatment [2]: 415 mg/dL | decrease in blood glucose levels [2]: 75%

O=c1cc(-c2ccc(O)c(O)c2)oc2cc(O)cc(O)c12 [luteolin, 3′,4′,5,7-tetrahydroxyflavone]
average blood glucose after treatment [3, 8]: 389 mg/dL | average drop in blood glucose levels [3, 8]: 41.1% | average blood glucose pre-treatment ([3]; before treatment): 660 mg/dL | increase in blood glucose, rat #3 ([3]; rat #3 with esophagial fistula, two weeks): 9.3% | decrease in blood glucose levels ([4]; 50 mg three times a day (150 mg total), within 24 hr): 10.2% | drop in blood glucose ([4]; 150 mg three times (450 mg total), 24 hr): 22.9% | decrease in glucose ([4]; 250 mg three times (750 mg total), 24 hr): 27.7% | blood glucose after treatment, one rat ([4]; intermediate dose, one rat, 18 hr): 372 mg/dL | blood glucose before treatment, one rat ([4]; intermediate dose, one rat, start): 777 mg/dL | reduction of blood glucose, one rat ([4]; intermediate dose, one rat, within 18 hr): 52% | reduction of hyperglycemia over all doses ([4]; over a 24 hour period, 50-250 mg doses): 10-28% | block of Kv1.3 channel current vs. control ([5]; 20 uM concentration): approximately 25% | block of Kv1.3 channel current vs. control ([5]; 100 uM concentration): 100% | blood glucose after treatment [2]: 307 mg/dL | blood glucose before treatment [2]: 445 mg/dL | decrease in blood glucose levels [2]: 31% | inhibition of CTL cytotoxicity against 264-pulsed T2 target cells ([6]; 4 hours incubation, FIG. 2): significantly inhibited | inhibition of calcein release [6]: inhibition of calcein release

O=c1cc(-c2cc(O)c(O)c(O)c2)oc2cc(O)cc(O)c12 [tricetin]
inhibition of calcein release [6]: inhibition of calcein release
